# Assay results reported in the supplement of paper PMC11208160.
# Assay: recombinant UMI read abundance after kanamycin selection (control-corrected) (log10(CPM+1)); higher = more efficient recombination; extreme values may be limits of the assay; sequences stand for … in AGTGCAGAGAAAATCGGCCAGTTTTCTCTGCCTGCAGTCCGCATGCCGTGGGACCCCTTGGGTTCTAACCTGTTGCCTAGATTTATGCAGCGGACTGCCTTTCTCCCAAAGTGATAAACCGG…AGGTTGGTTTCACT; site = the 11-nt donor
# Method: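 Pooled E. coli donor-specificity screen for the IS621 bridge recombinase. Each library member carries a reprogrammed 11-nt donor and a full-length LE bridge RNA expressed in cis from the natural promoter, with a paired donor-binding loop (8-nt LDG + 4-nt RDG) and a target-binding loop fixed to T5. It is co-electroporated with a T5 target plasmid; recombinase is induced with 0.07 mM IPTG and recombinants are selected on kanamycin. UMIs are counted as CPM, averaged over two biological replicates and corrected by the unselected control. Molecule = full bridge RNA written as DNA, built from the T5 scaffold: LDG = donor specificity nt 1-8, RDG = reverse complement of nt 8-11.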
# 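Also: IS621 bridge recombinase in Escherichia coli cells against a fixed T5 target plasmid.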
row,Sequence,recombinant UMI read abundance (log10)
1,ACCGGAACATGGACCGGTTTTCCCGGTAATCCGTATTTGTG (site ACCGGAACTCA),1.41
2,ACCGGGACATGGACCGGTTTTCCCGGTAATCCGTATTTGAG (site ACCGGGACTCT),1.23
3,ACCGGTCCATGGACCGGTTTTCCCGGTAATCCGTATTTGCC (site ACCGGTCCTGG),0
4,ACCGGTGCATGGACCGGTTTTCCCGGTAATCCGTATTTGAG (site ACCGGTGCTCT),1.35
5,ACCGTATCATGGACCGGTTTTCCCGGTAATCCGTATTTGCT (site ACAGTATCTTG),0
6,ACCGTATCATGGACCGGTTTTCCCGGTAATCCGTATTTGCT (site ACCGTATCTAG),2.39
7,ACCGTATCATGGACCGGTTTTCCCGGTAATCCGTATTTGGT (site ACCGTATCTAC),1.32
8,ACCTAAGCATGGACCGGTTTTCCCGGTAATCCGTATTTGGC (site ACCTAAGCTGC),2.22
9,ACCTACCCATGGACCGGTTTTCCCGGTAATCCGTATTTGAC (site ACCTACCCTGT),0.183
10,ACCTGATCATGGACCGGTTTTCCCGGTAATCCGTATTTGAT (site ACCTGATCTAT),0.427
11,ACCTGCCCATGGACCGGTTTTCCCGGTAATCCGTATTTGTT (site ACCTGCCCTAA),0.188
12,ACCTGGACATGGACCGGTTTTCCCGGTAATCCGTATTTGCA (site ACCTGGACTTG),1.82
13,ACCTGGACATGGACCGGTTTTCCCGGTAATCCGTATTTGTG (site ACCTGGACTCA),0.502
14,ACCTGGGCATGGACCGGTTTTCCCGGTAATCCGTATTTGTC (site ACCTGGGCTGA),0
15,ACCTTAGCATGGACCGGTTTTCCCGGTAATCCGTATTTGAA (site ACCTTAGCTTT),0.29
16,ACCTTAGCATGGACCGGTTTTCCCGGTAATCCGTATTTGGT (site ACCTTAGCTAC),0.271
17,ACCTTCTCATGGACCGGTTTTCCCGGTAATCCGTATTTGGG (site ACCTTCTCTCC),0.00668
18,ACCTTCTCATGGACCGGTTTTCCCGGTAATCCGTATTTGGG (site CCCTTCTCTCC),0.00967
19,ACCTTCTCATGGACCGGTTTTCCCGGTAATCCGTATTTGGG (site GCCTTCTCTCC),0.00741

row,Sequence,recombinant UMI read abundance (log10)
1,ACCTTCTCATGGACCGGTTTTCCCGGTAATCCGTATTTGGG (site TCCTTCTCTCC),0.00341
2,ACGAACTCATGGACCGGTTTTCCCGGTAATCCGTATTTGTC (site ACGAACTCTGA),2.03
3,ACGAAGACATGGACCGGTTTTCCCGGTAATCCGTATTTGTA (site ACGAAGACTTA),2.82
4,ACGAAGACATGGACCGGTTTTCCCGGTAATCCGTATTTGTA (site AGGAAGACTTG),0
5,ACGAAGCCATGGACCGGTTTTCCCGGTAATCCGTATTTGGG (site ACGAAGCCTCC),0.0169
6,ACGAAGCCATGGACCGGTTTTCCCGGTAATCCGTATTTGGG (site CCGAAGCCTCC),0.00571
7,ACGAAGCCATGGACCGGTTTTCCCGGTAATCCGTATTTGGG (site GCGAAGCCTCC),0.0145
8,ACGAAGCCATGGACCGGTTTTCCCGGTAATCCGTATTTGGG (site TCGAAGCCTCC),0.113
9,ACGACGCCATGGACCGGTTTTCCCGGTAATCCGTATTTGCT (site ACGACGCCTAG),0
10,ACGAGAACATGGACCGGTTTTCCCGGTAATCCGTATTTGCC (site ACGAGAACTGG),2.44
11,ACGAGTTCATGGACCGGTTTTCCCGGTAATCCGTATTTGGA (site ACGAGTTCTTC),2.41
12,ACGATAGCATGGACCGGTTTTCCCGGTAATCCGTATTTGTC (site ACGATAGCTGA),2.92
13,ACGATGACATGGACCGGTTTTCCCGGTAATCCGTATTTGCA (site ACGATGACTTG),3.16
14,ACGATGACATGGACCGGTTTTCCCGGTAATCCGTATTTGCA (site AGGAAGACTTG),0.907
15,ACGCACGCATGGACCGGTTTTCCCGGTAATCCGTATTTGGG (site AAGCACGCTCC),0.0265
16,ACGCACGCATGGACCGGTTTTCCCGGTAATCCGTATTTGGG (site ACGCACGCTCC),0.00911
17,ACGCACGCATGGACCGGTTTTCCCGGTAATCCGTATTTGGG (site AGGCACGCTCC),0.00698
18,ACGCACGCATGGACCGGTTTTCCCGGTAATCCGTATTTGGG (site ATGCACGCTCC),0.12
19,ACGCCACCATGGACCGGTTTTCCCGGTAATCCGTATTTGGG (site ACGCCACCTCC),0.011

row,Sequence,recombinant UMI read abundance (log10)
1,ACGCCTCCATGGACCGGTTTTCCCGGTAATCCGTATTTGTG (site ACGCCTCCTCA),0.0426
2,ACGCGCACATGGACCGGTTTTCCCGGTAATCCGTATTTGCG (site ACGCGCACTCG),1.97
3,ACGGCCCCATGGACCGGTTTTCCCGGTAATCCGTATTTGTG (site ACGGCCCCTCA),0.0276
4,ACGGCCGCATGGACCGGTTTTCCCGGTAATCCGTATTTGAA (site ACGGCCGCTTT),1.43
5,ACGGCGTCATGGACCGGTTTTCCCGGTAATCCGTATTTGGT (site ACGGCGTCTAC),2.01
6,ACGGGACCATGGACCGGTTTTCCCGGTAATCCGTATTTGTC (site ACGGGACCTGA),0
7,ACGGGCGCATGGACCGGTTTTCCCGGTAATCCGTATTTGTT (site ACGGGCGCTAA),1.39
8,ACGGTAGCATGGACCGGTTTTCCCGGTAATCCGTATTTGCA (site ACAGTATCTTG),2.05
9,ACGGTAGCATGGACCGGTTTTCCCGGTAATCCGTATTTGCA (site ACGGTAGCTTG),2.74
10,ACGTAGCCATGGACCGGTTTTCCCGGTAATCCGTATTTGCC (site ACGTAGCCTGG),0.17
11,ACGTCACCATGGACCGGTTTTCCCGGTAATCCGTATTTGTA (site ACGTCACCTTA),0.0617
12,ACGTGCACATGGACCGGTTTTCCCGGTAATCCGTATTTGGG (site ACGTGCACTCC),0.0159
13,ACGTGGCCATGGACCGGTTTTCCCGGTAATCCGTATTTGAG (site ACGTGGCCTCT),0.0124
14,ACGTGTACATGGACCGGTTTTCCCGGTAATCCGTATTTGTT (site ACGTGTACTAA),1.47
15,ACGTGTTCATGGACCGGTTTTCCCGGTAATCCGTATTTGAC (site ACGTGTTCTGT),2.1
16,ACGTTCCCATGGACCGGTTTTCCCGGTAATCCGTATTTGTG (site AAGTTCCCTCA),0.0189
17,ACGTTCCCATGGACCGGTTTTCCCGGTAATCCGTATTTGTG (site ACGTTCCCTCA),0.0247
18,ACGTTCCCATGGACCGGTTTTCCCGGTAATCCGTATTTGTG (site AGGTTCCCTCA),0.0827
19,ACGTTCCCATGGACCGGTTTTCCCGGTAATCCGTATTTGTG (site ATGTTCCCTCA),0.0196
